# Measured values from patent US10966978B2, “Dose and regimen for HDM2-p53 interaction inhibitors” (Novartis AG, priority 2016, dated 2021).
# Where two headings read alike, the source gives them in different places.
# Tests used:
# platelets = experiment: PK/PD model of thrombocytopenia (modeled platelet kinetic profiles); parameters: species or system human; details: regimen 1B (150 mg)
# Description: Based on individual PK and platelet counts data overtime a PK/PD model was established.
# PK model: 1 compartment with biphasic absorption.
# PD model: Adjusted Friberg model for thrombocytopenia including PLT transfusions and effect on HDM201 on proliferative cells and regulations.
# The platelet kinetic profiles shown in FIG. 5 are modeled based on the following doses as tested in each regimen (in order from top to bottom in FIG. 5): […]
# [1] = Compartmental PK modeling of average concentration during cycle 1, patients with hematological tumors; type: in vivo, human; details: all patients with measured PK, four regimens
# Protocol: (§1) Pharmacokinetic data have been evaluated throughout the course of the clinical study. […] Furthermore, an integrated analysis of all available HDM201 concentrations was conducted using a population approach. The PK of HDM201 was best described by a 1-compartment PK model with a delayed zero- and first-order absorption process, and a linear clearance. Body weight was identified as a statistically significant covariate on apparent central volume of distribution (Vc/F), in which Vc/F increased with increasing body weight.
# Compartmental PK modeling was used to estimate the individual average concentration during cycle 1 for patients with hematological tumors treated following the four different (FIG. 7). For all patients with measured PK, the estimated average drug concentrations during cycle 1 were above the most conservative average tumor stasis concentration of about 41 ng/mL per cycle determined from PKPD modeling of preclinical data (human SJSA-1 xenograft rat model).
# [2] = Clinical PK of HDM201 in patients (non-compartmental and population PK), study HDM201X2101; type: in vivo, human; details: for Tmax: read-out: Tmax, median; for Cmax: read-out: Cmax, Geo Mean (% CV)
# Protocol: as §1, with “dose escalation. Two HDM201 drug variants have been evaluated during the course of the study (refer to the protocol for further details).” for “clinical study.”
# Inter-patient variability (CV % Geo-mean) in exposure was generally low to moderate. Compartmental population PK modeling of NVP-HDM201 was used to estimate the individual average plasma concentration for Cycle 1 and to allow comparison with preclinical average concentration for tumor stasis derived by PK/PD tumor growth modeling.
# The PK of HDM201 have been evaluated in the ongoing single agent Phase I clinical trial in patients with solid tumors and hematological malignancies (HDM201X2101). Patients have been treated with a single dose on Day 1 in a three-week cycle (q3w, regimen 1A), with a single dose on Day 1 and Day 8 in a four-week cycle (d1 and d8 of 4 w cycle, regimen 1B), or with daily dosing for the first 7 or 14 days in a four-week cycle (regimen 2C [q.d., 1 w on/3 w off] or regimen 2A [q.d., 2 w on/2 w off], respectively). PK assessments were conducted following single dose and repeated administration. Preliminary PK parameters from non-compartmental analysis of plasma concentration-time profiles are summarized by dose regimen and tumor type (data cut-off 1 Apr. 2016). PK parameters for Regimen 2A (Day 1 and 14 of Cycle 1 for doses from 1 to 20 mg) and Regimen 1A (Day 1 of Cycle 1 for doses from 12.5 to 350 mg) in solid tumor patients are summarized as representative of the PK for daily and less frequent dosing regimens (Tables 9, 10 and 11).
# Following oral dosing (HDM201 capsule, fasted), the median time to reach maximum plasma concentrations ranged from 2.0 to 5.8 h across the dose range (2 to 350 mg). With the daily dosing regimen, HDM201 steady-state was generally reached by Day 8, and accumulation was less than 2-fold. […]
# Furthermore, the individual PK data was best described by a 1-compartment PK model with a delayed zero- and first-order absorption process (data cut-off 1 Apr. 2016). […] Body weight was identified as a statistically significant covariate on Vc/F.
# [3] = Regimen 1A 12.5 mg, Day 1 single dose, solid malignancies, N = 1
# [4] = Regimen 1A 25 mg, Day 1 single dose, solid malignancies, N = 1
# [5] = Regimen 1A 50 mg, Day 1 single dose, solid malignancies, N = 4
# [6] = Regimen 1A 100 mg, Day 1 single dose, solid malignancies, N = 4
# [7] = Regimen 1A 200 mg, Day 1 single dose, solid malignancies, N = 5
# [8] = Regimen 2A 1 mg daily, Day 14, solid malignancies, N = 1
# [9] = Regimen 2A 2 mg daily, Day 14, solid malignancies, N = 2
# [10] = Regimen 2A 4 mg daily, Day 14, solid malignancies, N = 3
# [11] = Regimen 2A 15 mg daily, Day 14, solid malignancies, N = 4
# [12] = Regimen 2A 15 mg, Day 1 single dose, solid malignancies, N = 4
# [13] = human, plasma, oral, 1 mg, Regimen 2A 1 mg, Day 1 single dose, solid malignancies, N = 1
# [14] = human, plasma, oral, 2 mg, Regimen 2A 2 mg, Day 1 single dose, solid malignancies, N = 2
compound,measurement,setting,value
"COc1ncc(-c2nc3c(n2C(C)C)[C@H](c2ccc(Cl)cc2)N(c2cc(Cl)cn(C)c2=O)C3=O)c(OC)n1 [HDM201, (S)-5-(5-Chloro-1-methyl-2-oxo-1,2-dihydro-pyridin-3-yl)-6-(4-chloro-phenyl)-2-(2,4-dimethoxy-pyrimidin-5-yl)-1-isopropyl-5,6-dihydro-1H-pyrrolo[3,4-d]imidazol-4-one]","platelet kinetic profile, modeled, compared among regimens with single agent activity",platelets,best overall platelet kinetic profile
same,estimated average concentration during cycle 1 relative to tumor stasis concentration (about 41 ng/mL),[1],above
same,"AUClast (0-24 h), Geo Mean (% CV)",[2]; [3],1483.1 ng·h/mL
same,"Cmax, Geo Mean (% CV)",[2]; [3],118.0 ng/mL
same,"T½, Geo Mean (% CV)",[2]; [3],7.2 h
same,"AUClast (0-24 h), Geo Mean (% CV)",[2]; [4],1773.6 ng·h/mL
same,"T½, Geo Mean (% CV)",[2]; [4],31.1 h
same,"AUClast (0-24 h), Geo Mean (% CV)",[2]; [5],8028.8 (25.6) ng * hr/mL
same,"Cmax, Geo Mean (% CV)",[2]; [5],467.0 (13.0) ng/mL
same,"AUClast (0-24 h), Geo Mean (% CV)",[2]; [6],14287.0 (58.5) ng * hr/mL
same,"Cmax, Geo Mean (% CV)",[2]; [6],663.3 (30.1) ng/mL
same,"AUClast (0-24 h), Geo Mean (% CV)",[2]; [7],26255.2 (56.2) ng * hr/mL
same,"Cmax, Geo Mean (% CV)",[2]; [7],1168.8 (43.7) ng/mL
same,"AUClast (0-24 h), Geo Mean (% CV)",[2]; [8],99.5 ng·h/mL
same,"Cmax, Geo Mean (% CV)",[2]; [8],14.9 ng/mL
same,"AUClast (0-24 h), Geo Mean (% CV)","[2]; Regimen 2A 1 mg, Day 1 single dose, solid malignancies, N = 1",134.3 ng·h/mL
same,"AUClast (0-24 h), Geo Mean (% CV)",[2]; [9],109.3 (6.0) ng * hr/mL
same,"Cmax, Geo Mean (% CV)",[2]; [9],17.5 (4.9) ng/mL
same,"AUClast (0-24 h), Geo Mean (% CV)","[2]; Regimen 2A 2 mg, Day 1 single dose, solid malignancies, N = 2",169.1 (31.5) ng * hr/mL
same,"AUClast (0-24 h), Geo Mean (% CV)",[2]; [10],155.0 (21.7) ng * hr/mL
same,"Cmax, Geo Mean (% CV)",[2]; [10],25.6 (23.9) ng/mL
same,"Cmax, Geo Mean (% CV)","[2]; Regimen 2A 4 mg, Day 1 single dose, solid malignancies, N = 4",17.6 (22.8) ng/mL
same,"AUClast (0-24 h), Geo Mean (% CV)","[2]; Regimen 2A 7.5 mg, Day 1 single dose, solid malignancies, N = 4",598.1 (49.8) ng * hr/mL
same,"AUClast (0-24 h), Geo Mean (% CV)",[2]; [11],688.8 (29.2) ng * hr/mL
same,"Cmax, Geo Mean (% CV)",[2]; [11],106.0 (27.9) ng/mL
same,"AUClast (0-24 h), Geo Mean (% CV)",[2]; [12],1301.6 (71.0) ng * hr/mL
same,"Cmax, Geo Mean (% CV)",[2]; [12],91.5 (56.9) ng/mL
same,accumulation upon daily dosing,[2]; daily dosing,limited accumulation
same,accumulation,[2]; daily dosing regimen,less than 2 fold
same,steady-state reached by,[2]; daily dosing regimen,≤ 8 days
same,Tmax,"[2]; human, plasma, oral, 1 mg, Regimen 2A 1 mg daily, Day 14, solid malignancies, N = 1",4 h
same,Cmax,[2]; [13],7.9 ng/mL
same,Tmax,[2]; [13],8 h
same,Tmax,"[2]; human, plasma, oral, 2 mg, Regimen 2A 2 mg daily, Day 14, solid malignancies, N = 2",3.9 h
same,Cmax,[2]; [14],12 ng/mL
same,Tmax,[2]; [14],3.4 h
same,Tmax,"[2]; human, plasma, oral, 4 mg, Regimen 2A 4 mg daily, Day 14, solid malignancies, N = 3",4 h
same,AUC(0-t),"[2]; human, plasma, oral, 4 mg, Regimen 2A 4 mg, Day 1 single dose, solid malignancies, N = 4, read-out: AUClast (0-24 h), Geo Mean (% CV)",193 ng·h/mL
same,Tmax,"[2]; human, plasma, oral, 4 mg, Regimen 2A 4 mg, Day 1 single dose, solid malignancies, N = 4",2.5 h
